{
  "source": "patent US20260123631A1",
  "about": "“NATURAL PORPHIN SALT AND USE THEREOF AS PLANT GROWTH REGULATOR AND PLANT IMMUNITY INDUCER” (NANJING BOSTEC BIOLOGICAL ENGINEERING CO., LTD, priority 2022, published 2026)",
  "key": {"[1]": {"tested_on": "Phytophthora capsici LT263", "assay": "Inducing resistance of Nicotiana benthamiana leaves to phytophthora blight", "format": "in vivo", "settings": "inoculated on day 7 and day 10, read 36 h after inoculation", "protocol": "At 36 h after the inoculation, results were observed."}, "rice": {"tested_on": "rice", "assay": "Rice yield in the leaf blast field experiment", "format": "in vivo, rice (Nanjing 9108)", "settings": "3 mg/mu sprayed 3 times", "protocol": "The experiment was conducted according to experimental specifications in the field efficacy standard of GB/T17980.19-2000. In the experiment, the following two treatments were set: a first treatment: sodium iron chlorin was applied, and a second treatment: a blank control (water) was applied. A test sample was fully dissolved and diluted, and then applied. Based on the characteristics of disease and pest control, an agent was applied once at each of a late tillering stage (Jul. 22, 2021), a jointing-booting stage (Aug. 16, 2021), and a full heading stage (Aug. 30, 2021). […] Water amounts required per mu for the three times were 30 L, 45 L, and 45 L (sample concentrations: 0.1 ppm, 0.067 ppm, and 0.067 ppm), respectively. An area for each treatment was 3 mu. According to a five-point sampling method, 5 sampling points (20 m^2 per sampling point) were set for each treatment. The occurrence of leaf blast in rice was investigated in the field before harvesting.\nThe harvesting was conducted on Nov. 8, 2021. On the eve of harvesting, the yield composition and structure were investigated. Then a yield per mu was measured."}, "[2]": {"assay": "Stability of sample solutions in the dark/under light", "format": "physicochemical", "in_short": "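Salt in water, or acidic reference in 30–50% aqueous ethanol, at about 10 ppm; UV absorbance scanned 200–800 nm at 0, 1, 2, 3 h, stored at 25° C dark or under 30,000 lux light. Relative content = max-peak absorbance at each time divided by 0 h value (100%).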"}, "[3]": {"assay": "Dilution and pH determination for sample solutions", "format": "physicochemical", "protocol": "Method: 0.2500 g of a sample was accurately weighed and added to a 25 mL volumetric flask, dissolved with purified water, and diluted to a specified scale to prepare a 1.00% (10,000.0 ppm) initial solution. The initial solution was diluted with purified water in different ratios to prepare a series of solutions with a concentration of 1,000.0 ppm to 0.1 ppm. A pH value of each sample was determined three times."}, "chlorophyllase": {"target": "chlorophyllase", "assay": "In vitro chlorophyllase-inhibiting activity test", "format": "biochemical, mung bean", "settings": "substrate chlorophyll 120 ppm, sample 0.3 ppm to 30.0 ppm", "protocol": "A chlorophyllase inhibition rate of a salt sample solution at each concentration was determined, and an IC50 value for a chlorophyllase inhibition activity of a salt sample was calculated."}, "wheat": {"tested_on": "wheat", "assay": "Germination of wheat and growth of seedlings", "format": "in vivo, wheat (Huaimai 35)", "settings": "for Root length / Root number / Root weight / Seedling height / Seedling weight: wheat seedlings", "protocol": "Method: 3 replicates were set for each treatment. 50 full seeds with a consistent size were selected each time for each sample, disinfected with sodium hypochlorite for 5 min, rinsed with clear water, and placed in a plastic box filled with 100 g of a sand. 25 mL of a prepared sample solution was poured into the plastic box, and the seeds were arranged regularly. The plastic box was covered with a lid, and then incubated in a 25° C. incubator. The germination was determined when a length of a sprout of a wheat seed exceeded a half of a diameter (long axis) of the wheat seed (determination criterion). According to the growth of wheat, the germ exposure of seeds and the number of germinated seeds were recorded every day. On day 6, 10 wheat seedlings were randomly selected, and a root length, a plant height, and a root number were determined. On day 7, a root weight and an aboveground part weight were determined. All index data was produced based on 3 replicates."}},
  "data": [
    {"substance": "sodium iron chlorin [Example 21]", "values": [
      {"measurement": "lesion area after LT263 inoculation compared with DDW", "setting": "[1]; 2.0 ppm injected into leaves", "result": "significantly reduce a lesion area"},
      {"measurement": "lesion area after LT263 inoculation compared with DDW", "setting": "[1]; 20.0 ppm injected into leaves", "result": "significantly reduce a lesion area"},
      {"measurement": "Ear number per mu", "setting": "rice", "result": "22.40 10,000"},
      {"measurement": "Filled grain number per ear", "setting": "rice", "result": 117.39},
      {"measurement": "Thousand-grain weight", "setting": "rice", "result": 26.9, "unit": "g"},
      {"measurement": "Yield", "setting": "rice", "result": 616.85, "unit": "kg/mu"},
      {"measurement": "Yield increase rate", "setting": "rice; versus water", "result": 7.1, "unit": "%"},
      {"measurement": "Relative content", "setting": "[2]; in the dark, 25° C., 0 h", "result": 100.0, "unit": "%"},
      {"measurement": "Relative content", "setting": "[2]; in the dark, 25° C., 1 h", "result": 99.51, "unit": "%"},
      {"measurement": "Relative content", "setting": "[2]; in the dark, 25° C., 2 h", "result": 99.60, "unit": "%"},
      {"measurement": "Relative content", "setting": "[2]; in the dark, 25° C., 3 h", "result": 99.43, "unit": "%"},
      {"measurement": "Relative content", "setting": "[2]; under light 30,000 lux, 0 h", "result": 100.00, "unit": "%"},
      {"measurement": "Relative content", "setting": "[2]; under light 30,000 lux, 1 h, salts in water, acidic reference in 30% to 50% ethanol", "result": 69.35, "unit": "%"},
      {"measurement": "Relative content", "setting": "[2]; under light 30,000 lux, 2 h, salts in water, acidic reference in 30% to 50% ethanol", "result": 59.05, "unit": "%"},
      {"measurement": "Relative content", "setting": "[2]; under light 30,000 lux, 3 h, salts in water, acidic reference in 30% to 50% ethanol", "result": 54.02, "unit": "%"},
      {"measurement": "pH", "setting": "[3]; 0.1 ppm in purified water", "result": "(6.79)"},
      {"measurement": "pH", "setting": "[3]; 1.0 ppm in purified water", "result": "(6.89)"},
      {"measurement": "pH", "setting": "[3]; 10.0 ppm in purified water", "result": "(7.23)"},
      {"measurement": "pH", "setting": "[3]; 20.0 ppm in purified water", "result": "(7.42)"},
      {"measurement": "pH", "setting": "[3]; 30.0 ppm in purified water", "result": "(7.51)"},
      {"measurement": "pH", "setting": "[3]; 100.0 ppm in purified water", "result": "(8.34)"},
      {"measurement": "pH", "setting": "[3]; 1000.0 ppm in purified water", "result": "(9.71)"},
      {"measurement": "pH", "setting": "[3]; 10000.0 ppm in purified water", "result": "(10.41)"},
      {"measurement": "IC50 for chlorophyllase inhibition activity", "setting": "chlorophyllase", "result": 5.22, "unit": "ppm"},
      {"measurement": "Germination rate of wheat", "setting": "wheat; 0.0025 ppm", "result": 94.0, "unit": "%"},
      {"measurement": "Root length", "setting": "wheat; 0.0025 ppm", "result": 9.30, "unit": "cm"},
      {"measurement": "Root number", "setting": "wheat; 0.0025 ppm", "result": 5.3},
      {"measurement": "Root weight", "setting": "wheat; 0.0025 ppm", "result": 0.0953, "unit": "g"},
      {"measurement": "Seedling height", "setting": "wheat; 0.0025 ppm", "result": 8.88, "unit": "cm"},
      {"measurement": "Seedling weight", "setting": "wheat; 0.0025 ppm", "result": 0.170, "unit": "g"},
      {"measurement": "Germination rate of wheat", "setting": "wheat; 0.0250 ppm", "result": 95.3, "unit": "%"},
      {"measurement": "Root length", "setting": "wheat; 0.0250 ppm", "result": 10.17, "unit": "cm"},
      {"measurement": "Root number", "setting": "wheat; 0.0250 ppm", "result": 5.2},
      {"measurement": "Root weight", "setting": "wheat; 0.0250 ppm", "result": 0.1027, "unit": "g"},
      {"measurement": "Seedling height", "setting": "wheat; 0.0250 ppm", "result": 9.13, "unit": "cm"},
      {"measurement": "Seedling weight", "setting": "wheat; 0.0250 ppm", "result": 0.178, "unit": "g"},
      {"measurement": "Germination rate of wheat", "setting": "wheat; 0.2500 ppm", "result": 93.3, "unit": "%"},
      {"measurement": "Root length", "setting": "wheat; 0.2500 ppm", "result": 9.64, "unit": "cm"},
      {"measurement": "Root number", "setting": "wheat; 0.2500 ppm", "result": 4.9},
      {"measurement": "Root weight", "setting": "wheat; 0.2500 ppm", "result": 0.0867, "unit": "g"},
      {"measurement": "Seedling height", "setting": "wheat; 0.2500 ppm", "result": 7.95, "unit": "cm"},
      {"measurement": "Seedling weight", "setting": "wheat; 0.2500 ppm", "result": 0.145, "unit": "g"}
    ]}
  ]
}
